Experimental data published in patent US20240074442A1, “UVARIA GRANDIFLORA EXTRACT AS A BOTANICAL FUNGICIDE, PREPARATION METHOD THEREFOR, AND APPLICATION THEREOF” (HAINAN UNIVERSITY, priority 2021, published 2024).
In brackets after ≈: the same amount, converted by molar mass. Structures can show the parent of a compound that is named as a salt. Where two headings read alike, the source gives them in different places.

What was measured:
[1] = system: Colletotrichum musae; experiment: Mycelial growth rate method, in vitro fungicidal activity; assay type: cell-based; conditions: C.M
[2] = system: Neoscytalidium dimidiatum; experiment: as above; assay type: cell-based; conditions: N.D, 50 μg mL^−1; for inhibition at 50 µg/mL: Neoscytalidium dimidiatum
[3] = system: Rhizoctonia solani; experiment: as above; assay type: cell-based; conditions: R.S
[4] = system: Colletotrichum gloeosporioiles; experiment: as above; assay type: cell-based; conditions: C.G, 50 μg mL^−1; for inhibition at 50 µg/mL: Colletotrichum
[5] = system: Gilbertella persicaria; experiment: as above; assay type: cell-based; conditions: G.P
[6] = system: Colletotrichum siamense; experiment: as above; assay type: cell-based; conditions: C.S, 50 μg mL^−1; for inhibition at 50 µg/mL: Colletotrichum siamense
[7] = system: Pyricularia oryzae; experiment: microbe, parasite or virus in culture; assay type: cell-based; conditions: for inhibition at 50 µg/mL: read-out: Inhibition rate (%)
[8] = system: Fusarium graminearum; experiment: microbe, parasite or virus in culture; assay type: cell-based; conditions: for inhibition at 50 µg/mL: read-out: Inhibition rate (%)
[9] = system: Colletotrichum capsici; experiment: Mycelial growth rate method, in vitro fungicidal activity; assay type: cell-based; conditions: C.C, 50 μg mL^−1; for inhibition at 50 µg/mL: Colletotrichum truncatum
[10] = system: Phytophthora capsici; experiment: as above; assay type: cell-based; conditions: P.C
[11] = system: cowpea powdery mildew; experiment: Potted fungicidal activity test; conditions: in vivo
[12] = system: Cucumber downy mildew; experiment: Potted fungicidal activity test; assay type: in vivo, Pseudoperonospora cubensis; conditions: for Control effect (%): potted, cucumber downy mildew
[13] = system: potato late blight; assay type: in vivo; conditions: potted
[14] = system: Phytophthora capsici; experiment: Potted fungicidal activity test, protective effect; conditions: in vivo
[15] = Colletotrichum musae, 50 μg mL^−1
[16] = Colletotrichum musae, read-out: EC50
[17] = Rhizoctonia solani, 50 μg mL^−1
[18] = Rhizoctonia solani, read-out: EC50
[19] = Gilbertella persicaria, 50 μg mL^−1
[20] = Gilbertella persicaria, read-out: EC50
[21] = Phytophthora capsici, 50 μg mL^−1
[22] = Phytophthora capsici, read-out: EC50

Compound | inhibition at 50 µg/mL [1, 15] | EC50 [1, 16] | inhibition at 50 µg/mL [2] | inhibition at 50 µg/mL [3, 17] | EC50 [3, 18] | inhibition at 50 µg/mL [4] | inhibition at 50 µg/mL [5, 19] | EC50 [5, 20] | inhibition at 50 µg/mL [6] | EC50 ([7]; Pyricularia oryzae) | inhibition at 50 µg/mL ([7]; Pyricularia oryzae) | EC50 ([8]; Fusarium graminearum) | inhibition at 50 µg/mL ([8]; Fusarium graminearum) | inhibition at 50 µg/mL [9] | inhibition at 50 µg/mL [10, 21] | EC50 [10, 22] | Control effect (%) [14] | Disease index (±SD) [14] | also measured
COc1ccc2ccc(=O)oc2c1CC=C(C)C [Osthole] | 93.3% | 9.18 ± 0.33 µg/mL (≈ 37.6 µM) | 68.2% | 75.8% | 16 ± 1.39 µg/mL (≈ 65.6 µM) | 56.9% | 94.3% | 11.4 ± 0.51 µg/mL (≈ 46.7 µM) | 37.7% | 11.5 ± 0.42 µg/mL (≈ 47.2 µM) | 89.1% | 21.4 ± 0.61 µg/mL (≈ 87.7 µM) | 65.1% | 4.8% | 55.7% | 52.59 ± 0.27 µg/mL (≈ 215 µM) |  |  | 
CCCC1COC(Cn2cncn2)(c2ccc(Cl)cc2Cl)O1 (stereo not drawn) [Propiconazole] |  |  |  |  |  |  |  |  |  |  |  |  |  |  |  |  |  |  | Control effect (%) [11]: 100%; Disease index (±SD) [11]: 0 ± 0.0
O=C(OC[C@]1(O)C(=O)C=C[C@H](OC(=O)c2ccccc2)[C@H]1O)c1ccccc1 [zeylenone] | 84.3% | 3.37 µg/mL (≈ 8.81 µM) | 43.8% | 76.8% | 4.91 ± 0.12 µg/mL (≈ 12.8 µM) | 45% | 77.6% | 17.3 ± 2.29 µg/mL (≈ 45.2 µM) | 43.5% | 21.38 ± 0.14 µg/mL (≈ 55.9 µM) | 66.2% | 22.94 ± 0.11 µg/mL (≈ 60 µM) | 52.5% | 34.4% | 88.1% | 6.98 µg/mL (≈ 18.3 µM) |  |  | control effect on cucumber downy mildew compared with Cyazofamid ([12]; potted fungicidal activity test, in words): equivalent to that of the chemical fungicide Cyazofamid; Control effect (%) ([12]; 6.25 μg mL^−1): 25 ± 1.0%; Control effect (%) ([12]; 12.5 μg mL^−1): 70 ± 3.0%; Control effect (%) ([12]; 25 μg mL^−1): 88 ± 1.7%; Control effect (%) ([12]; 50 μg mL^−1): 99 ± 2.0%; Control effect (%) ([13]; 6.25 μg mL^−1): 0 ± 0.0%; Control effect (%) ([13]; 12.5 μg mL^−1): 0 ± 0.0%; Control effect (%) ([13]; 25 μg mL^−1): 0 ± 0.0%; Control effect (%) ([13]; 50 μg mL^−1): 20 ± 2.0%
COc1ccc(C(=CC(=O)N2CCOCC2)c2ccc(Cl)cc2)cc1OC [Dimethomorph] |  |  |  |  |  |  |  |  |  |  |  |  |  |  |  |  | 100.0% | 0.0 ± 0.0 | 
CO/C=C(/C(=O)OC)c1ccccc1Oc1cc(Oc2ccccc2C#N)ncn1 [Azoxystrobin] |  |  |  |  |  |  |  |  |  |  |  |  |  |  |  |  |  |  | EC50 [1]: 52.51 ± 0.42 µg/mL (≈ 130 µM); Inhibition rate (%) ([1]; 50 μg mL^−1): 51.2%; Inhibition rate (%) [2]: 51.2%; EC50 [3]: <0.06 ± 0.12 µg/mL; Inhibition rate (%) ([3]; 50 μg mL^−1): 73.1%; Inhibition rate (%) [4]: 52.5%; EC50 [5]: 39.09 ± 0.05 µg/mL (≈ 96.9 µM); Inhibition rate (%) ([5]; 50 μg mL^−1): 57.2%; Inhibition rate (%) [6]: 60.9%; EC50 ([7]; P.O): 17.89 ± 0.14 µg/mL (≈ 44.3 µM); Inhibition rate (%) ([7]; P.O, 50 μg mL^−1): 57.8%; EC50 ([8]; F.G): 5.27 ± 0.21 µg/mL (≈ 13.1 µM); Inhibition rate (%) ([8]; F.G, 50 μg mL^−1): 65.7%; Inhibition rate (%) [9]: 41.27%; EC50 [10]: 18.81 ± 0.31 µg/mL (≈ 46.6 µM); Inhibition rate (%) ([10]; 50 μg mL^−1): 69.9%
COc1ccc2cc3[n+](cc2c1OC)CCc1cc2c(cc1-3)OCO2 [Berberine hydrochloride] |  |  |  |  |  |  |  |  |  |  |  |  |  |  |  |  | 80.0% | 16.0 ± 2.0 | 
